According to paper PMC11645267, “Novel pharmacologic inhibition of lysine-specific demethylase 1 as a potential therapeutic for glioblastoma” (Cancer Gene Therapy, 2024):

Tests used:
GSC cells = experiment: mRNA expression of super-enhancer-associated genes; type: cell-based; conditions: 96 h
Experimental: RNA-seq analysis was conducted to examine gene expression changes associated with super-enhancers/enhancers. Among the genes with de novo H3K4me2 modification, the average log2 fold changes (S2172 treatment relative to DMSO treatment) were −0.12 ± 0.03 for super-enhancer-related genes and −0.01 ± 0.01 for typical enhancer-related genes (P = 0.0004) (Supplementary Fig. S6B). In contrast, among the genes with increased H3K4me2 modification, the average log2 fold changes were −0.04 ± 0.01 for super-enhancer-related genes and −0.07 ± 001 for typical enhancer-related genes (P = 0.028) (Supplementary Fig. S6C). […]
instructions. For GSC cells, the CellTiter-Glo 3D Viability Assay (Promega, Madison, WI, USA) was used to measure the living cells. All proliferation experiments were repeated […]
Total RNA from the cell lines was extracted using TRIzol (Thermo Fisher Scientific), followed by reverse-transcription using Prime Script RT Master Mix (Takara, Kusatsu, Japan). TaqMan qPCR (Roche Diagnostics, Basel, Switzerland) and SYBR Green qPCR (TOYOBO, Osaka, Japan) were performed at least in triplicate for the target genes.
Expression levels of each gene were normalized to GAPDH. GAPDH for TaqMan PCR assays was Hs.PT.39a.22214836 (Integrated DNA Technologies, Coralville, IA, USA).
Oligonucleotide primers used for SYBR Green assays are shown in Supplementary […]

GSC and LN229 cells = experiment: PARP cleavage (apoptosis) by western blot; type: cell-based; conditions: GSC1228, GSC222, GSC316, LN229; 5 μM
Excerpt: Super-enhancers consist of enhancer clusters with abundant binding of transcription factors and are highly enriched with H3K27ac marks. The H3K4me2 increased regions included the MYC locus and H3K4me2 de novo regions comprised Nestin and SOX2 loci (Fig. 2F, Supplementary Fig. S5A). These regions were also identified as super-enhancers in GSCs using data from our previous study (Fig. 2F). Compared to the large increase in H3K4me2 in these regions, changes in H3K4me3 were subtle after S2172 treatment (only 2582 regions were acquired modification) (Fig. 2C). Increasing the me2/me3 ratio at H3K4 is associated with reduced gene expression.
A mRNA expression of stem cell marker genes following 96 h treatment of GSC1228 with S2172 (5 μM). The y-axis indicates the expression change relative to DMSO-treated cells. Error bar indicates the SD. *P < 0.05. B Left panel, western blot analysis of MYC, Nestin, and SOX2 after treatment of GSC1228 with either DMSO or S2172 (5 μM) for 96 h. β-actin (ACTB) was used as the loading control. Right panel, Quantification of band signal intensities from the western blot. […] The ratio was calculated by dividing the cleaved-PARP band intensity by the full length-PARP band intensity. […]
[…] Quantification of signal intensity of western blot (right panel). […] Ratio was calculated by dividing cleaved band intensity by total protein band intensity. […]

NC1CCC(NC2CC2c2cc(F)cc(F)c2OCc2ccccc2)CC1 (centres unmarked) [S2172]
expression of super-enhancer-associated genes EGR1 and CDK6 (GSC cells): downregulated
apoptosis, increased cleaved PARP (GSC and LN229 cells): induced apoptosis
